The values that follow come from patent publication US7582651B2, “Pyrrolopyridine derivative and use thereof” (Takeda Pharmaceutical Company Limited, priority 2002, dated 2009).

Assay [1] deals with ICR male mice. Kind of assay: Tail-flick test (55° C. water bath). Format: in vivo, mouse. The note with it: po. The method, then:
Eight of 5 weeks old ICR male mice were used in a group in this test. The tail of the mouse was dipped by about 2 cm from the end into water in a water bath warmed to 55° C., and the latency to lift the tail up was measured. The latency was previously measured before the administration of the drug, and the mouse having the latency of 2 seconds or less was selected and used in the test. The drug was administered orally, and the latency was measured after 3, 6 and 24 hours. Cut-off time was set to 5 seconds. The drug was suspended in 0.5% methylcellulose, and the dose was 20 ml/kg BW.
On the technique in general: Thermal pain tests record how soon the animal reacts.

A further assay deals with SD male rats. Kind of assay: Measurement of bladder volume (saline infusion under urethane anesthesia). Format: in vivo, rat. As to conditions: sc, 12 hours after administration. The method, then:
Measurement of Mouse Bladder Volume
Six or seven of 7 weeks old SD male rats were used in a group in this test. At 12 hours after the subcutaneous administration of the drug, the abdomen of rat was cut open under urethane anesthesia (1.2 g/kg, ip) to expose the bladder. Physiological saline solution was infused into the bladder at the rate of 0.1 ml/minutes to check excretion reflection. All of the urine was drained off, and the physiological saline solution was infused again, and then, the bladder volume of mouse was calculated by measuring the time to urination.

The test system of assay [2] is ICR male mice. Put plainly: Mouse eye dropping test (stimulating and desensitizing activity, capsaicin challenge). Format: in vivo. The note with it: 0.01 ml dropped to the eye; capsaicin (0.3 μg) 1 hour after initial treatment; desensitizing activity. The method, then: Eight of 4 to 5 weeks old ICR male mice (Japan SLC Inc.) were used in a group in this test. 0.01 ml of the drug was added dropwise to the eye, and the time when the mouse continued to close the eye was measured. The stimulation of the drug was evaluated as positive when the time is more than 10 seconds, and as negative when the time is 10 seconds or less. At 1 hour after the initial treatment, a solution of capsaicin (0.3 μg) was added dropwise to the eye to evaluate whether the stimulation is or not, and examined the desensitizing activity of the compound. The stimulating and desensitizing activity of the drug were calculated as a value of ED50. The drug was dissolved in a mixture of 10% ethanol, 20% Tween 80 and 70% physiological saline solution.

Assay [3] relates to vanilloid receptor-1 (VR1) expressed in CHO-K1 cells (RVR1/CHO and HVR1/CHO strains). Kind of assay: Evaluation of compounds based on cell death (survival rate of VR1-expressing CHO strains). More on the design: species or system rat, human. As to conditions: 1 μM test compound, 3 hours reaction, Alama Blue, cultured 20 hours; strain (RVR1/CHO or HVR1/CHO) not stated. The method, then: CHO-K1 cells (ATCC No.: CCL-61) were grown in a 150 cm^2 of a cell culture flask (Corning Coaster) using a Ham's F12 medium (GIBCO BRL) containing 10% fetal bovine serum (GIBCO BRL) and were collected from the flask by using 0.5 g/L trypsin-0.2 g/L EDTA (GIBCO BRL). The cells were washed with PBS (GIBCO BRL), centrifuged (1000 rpm, 5 minutes) and suspended in PBS. Then, the DNA was introduced into the cells using Gene Pulser (Bio-Rad Laboratories Inc.) under the following conditions. Namely, 1×10^7 cells and 15 μg of plasmid pRVR1 for expression of rat VR1 were added into a cuvette having a 0.4 cm of gap, and electroporation was carried out at an electric voltage of 0.25 kV and a capacitance of 960 μF. Subsequently, the cells were transferred into the Ham's F12 medium containing 10% fetal bovine serum, and incubated for 24 hours. The cells were then collected, centrifuged and suspended in Ham's F12 medium containing 10% fetal bovine serum and Geneticin (GIBCO BRL) at a concentration of 500 μg/ml. […]
Subsequently, the resulting Geneticin-resistant strains were cultured in the 96-well plates (Corning Coaster). […] Subsequently, the radioactivity was measured with TopCount (Packard Industry Company, Inc.) to select RVR1/CHO strains of which calcium concentration in the cells is increased when capsaicin is added thereto. […]

The structures appear in SMILES notation.

Regarding `Cc1cc(C)c2c(C#N)c(/C=C/C(=O)NC3CCOC(C)(C)C3)n(C3CCc4ccccc43)c2n1` (stereo not drawn) [Example 51, (2E)-3-[3-cyano-1-(indan-1-yl)-4,6-dimethyl-1H-pyrrolo[2,3-b]pyridin-2-yl]-N-(2,2-dimethyltetrahydro-2H-pyran-4-yl)acrylamide], the Latency was 0.85 ± 0.10 s with ICR male mice [1] (10 mg/kg, 3 h after administration); 0.64 ± 0.04 s with ICR male mice [1] (10 mg/kg, 6 h after administration); 0.78 ± 0.04 s in the assay on ICR male mice [1] (10 mg/kg, 24 h after administration); 0.55 ± 0.02 s in the assay with ICR male mice [1] (10 mg/kg, Pre (before administration)); 2.31 ± 1.13 s with ICR male mice [1] (30 mg/kg, 3 h after administration); 2.04 ± 1.15 s in the assay with ICR male mice [1] (30 mg/kg, 6 h after administration). In addition, the Latency in the assay with ICR male mice [1] (30 mg/kg, 24 h after administration) was found to be 3.36 ± 1.02 s; in the assay on ICR male mice [1] (30 mg/kg, Pre (before administration)), 0.70 ± 0.07 s. In addition, the Bladder capacity in the assay on SD male rats (3 mg/kg) is on record as 1.76 ± 0.37 mL; with SD male rats (10 mg/kg) it was 1.57 ± 0.23 mL.

Take `Cc1cc(C)c2c(C#N)c(/C=C/C(=O)N[C@@H]3CCOC(C)(C)C3)n([C@H]3CCCc4ccccc43)c2n1` [Example 74, (2E)-3-{3-cyano-4,6-dimethyl-1-[(1S)-1,2,3,4-tetrahydronaphthalen-1-yl]-1H-pyrrolo[2,3-b]pyridin-2-yl}-N-[(4R)-2,2-dimethyltetrahydro-2H-pyran-4-yl]prop-2-enamide]: the ED50 with ICR male mice [2] came out at 0.55 µg. Further, in assay [3], the “survival rate of the cells” value is 2%.
